The values that follow come from patent US10183950B2, “Thienopyrimidine inhibitors of atypical protein kinase C” (Cancer Research Technology Limited, priority 2011, dated 2019).

Each structure is given as a SMILES string.

This assay concerns the target T1, full-length human PKCι (Homo sapiens, UniProt P41743).
T1 construct: Recombinant, full-length human PKCι expressed in Sf21 insect cells is also commercially available; purchased; host or cells: Sf21 insect cells
T1 sequence (P41743 1-596): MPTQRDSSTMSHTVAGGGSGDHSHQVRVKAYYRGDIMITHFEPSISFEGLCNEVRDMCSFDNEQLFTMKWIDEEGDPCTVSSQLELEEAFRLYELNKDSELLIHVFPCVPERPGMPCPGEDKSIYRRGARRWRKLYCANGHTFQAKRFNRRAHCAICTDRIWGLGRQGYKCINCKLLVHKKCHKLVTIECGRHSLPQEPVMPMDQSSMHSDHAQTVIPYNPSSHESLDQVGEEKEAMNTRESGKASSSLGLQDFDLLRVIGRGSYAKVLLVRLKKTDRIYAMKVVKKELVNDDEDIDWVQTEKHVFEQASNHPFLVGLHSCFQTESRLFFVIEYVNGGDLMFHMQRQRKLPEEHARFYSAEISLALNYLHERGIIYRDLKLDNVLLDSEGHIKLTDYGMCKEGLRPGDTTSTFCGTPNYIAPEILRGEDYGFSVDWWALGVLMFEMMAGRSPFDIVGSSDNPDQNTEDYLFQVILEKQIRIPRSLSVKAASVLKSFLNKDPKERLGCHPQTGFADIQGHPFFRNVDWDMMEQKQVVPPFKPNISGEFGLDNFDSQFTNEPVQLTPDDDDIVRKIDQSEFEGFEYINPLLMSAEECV
Kind of assay: PKCι IC50 IMAP fluorescence polarisation assay, full-length enzyme. The note with it: full length PKCi at 15 μM ATP; read-out: IC50 in IMAP assay against full length PKCi. It counts as biochemical. In general terms: Fluorescence polarisation rises when a labelled molecule tumbles more slowly, as on binding a larger partner.
As usually defined, the IC50 is the concentration that gives 50% inhibition. For `N[C@H](CNc1nc(-c2ccncc2)nc2c(C#CC3(O)CCC3)csc12)Cc1ccccc1` [compound 539, 1-[4-((S)-2-Amino-3-phenyl-propylamino)-2-pyridin-4-yl-thieno[3,2-d]pyrimidin-7-ylethynyl]-cyclobutanol], the 50% inhibitory concentration (IC50) is below 100 nM.

Consider `C[C@H](O)CC#Cc1csc2c(NC[C@@H](N)Cc3ccccc3)nc(-c3ccncc3)nc12` [compound 540, (S)-5-[4-((S)-2-Amino-3-phenyl-propylamino)-2-pyridin-4-yl-thieno[3,2-d]pyrimidin-7-yl]-pent-4-yn-2-ol], for which the half-inhibitory concentration (IC50) was in the range of 100 to 1000 nM.

`C#Cc1csc2c(NC[C@@H](N)Cc3ccccc3)nc(-c3ccncc3)nc12` [compound 541, (S)-N*1*-(7-Ethynyl-2-pyridin-4-yl-thieno[3,2-d]pyrimidin-4-yl)-3-phenyl-propane-1,2-diamine]: the concentration for half-maximal inhibition (IC50) is below 100 nM.

Take `CC#Cc1csc2c(NC[C@@H](N)Cc3ccccc3)nc(-c3ccncc3)nc12` [compound 542, (S)-3-Phenyl-N*1*-(7-prop-1-ynyl-2-pyridin-4-yl-thieno[3,2-d]pyrimidin-4-yl)-propane-1,2-diamine]: the half-maximal inhibitory concentration (IC50) is below 100 nM.

Turning to `C#Cc1sc2c(N[C@@H]3CCNC3)nc(-c3ccncc3)nc2c1C` [compound 543, (6-Ethynyl-7-methyl-2-pyridin-4-yl-thieno[3,2-d]pyrimidin-4-yl)-(R)-pyrrolidin-3-yl-amine], the IC50 lay in the range of 1000 to 10000 nM.

As for `C[C@@H](F)C#Cc1csc2c(NC[C@@H](N)Cc3ccccc3)nc(-c3ccncc3)nc12` [compound 544, (S)—N*1*-[7-(3-Fluoro-but-1-ynyl)-2-pyridin-4-yl-thieno[3,2-d]pyrimidin-4-yl]-3-phenyl-propane-1,2-diamine], the IC50 is below 100 nM.

`N[C@H](CNc1nc(-c2ccncc2)nc2c(C#CCF)csc12)Cc1ccccc1` [compound 545, (S)-N*1*-[7-(3-Fluoro-prop-1-ynyl)-2-pyridin-4-yl-thieno[3,2-d]pyrimidin-4-yl]-3-phenyl-propane-1,2-diamine]: the IC50 was below 100 nM.

In the case of `N[C@H](CNc1nc(-c2ccncc2)nc2c(C#CCCF)csc12)Cc1ccccc1` [compound 546, (S)-N*1*-[7-(4-Fluoro-but-1-ynyl)-2-pyridin-4-yl-thieno[3,2-d]pyrimidine], the half-inhibitory concentration (IC50) lay in the range of 100 to 1000 nM.

Take `N[C@H](CNc1nc(-c2ccncc2)nc2c(-c3cn[nH]n3)csc12)Cc1ccccc1` [compound 547, (S)-3-Phenyl-N*1*-[2-pyridin-4-yl-7-(3H-[1,2,3]triazol-4-yl)-thieno[3,2-d]pyrimidin-4-yl]-propane-1,2-diamine]: the half-maximal inhibitory concentration (IC50) was below 100 nM.

With `N[C@H](CNc1nc(-c2ccncc2)nc2c(C#Cc3cscn3)csc12)Cc1ccccc1` [compound 548, (S)-3-Phenyl-N*1*-(2-pyridin-4-yl-7-thiazol-4-ylethynyl-thieno[3,2-d]pyrimidin-4-yl)-propane-1,2-diamine], the IC50 lay in the range of 100 to 1000 nM.

With `N[C@H](CNc1nc(-c2ccncc2)nc2c(C#Cc3cc[nH]n3)csc12)Cc1ccccc1` [compound 549, (S)-3-Phenyl-N*1*-[7-(1H-pyrazol-3-ylethynyl)-2-pyridin-4-yl-thieno[3,2-d]pyrimidin-4-yl]-propane-1,2-diamine], the half-maximal inhibitory concentration (IC50) was below 100 nM.

With `CN(C)C(=O)c1csc2c(NC[C@@H](N)Cc3ccccc3)nc(-c3ccncc3)nc12` [compound 550, 4-((S)-2-Amino-3-phenyl-propylamino)-2-pyridin-4-yl-thieno[3,2-d]pyrimidine-7-carboxylic acid dimethylamide], the half-inhibitory concentration (IC50) was 1000 to 10000 nM.

As for `CCCNC(=O)c1csc2c(NC[C@@H](N)Cc3ccccc3)nc(-c3ccncc3)nc12` [compound 551, 4-((S)-2-Amino-3-phenyl-propylamino)-2-pyridin-4-yl-thieno[3,2-d]pyrimidine-7-carboxylic acid propylamide], the IC50 was 100 to 1000 nM.

Regarding `CCN(CC)C(=O)c1csc2c(NC[C@@H](N)Cc3ccccc3)nc(-c3ccncc3)nc12` [compound 552, 4-((S)-2-Amino-3-phenyl-propylamino)-2-pyridin-4-yl-thieno[3,2-d]pyrimidine-7-carboxylic acid diethylamide], the concentration for half-maximal inhibition (IC50) was 1000 to 10000 nM.

On to `CNC(=O)c1csc2c(NC[C@@H](N)Cc3ccccc3)nc(-c3ccncc3)nc12` [compound 553, 4-((S)-2-Amino-3-phenyl-propylamino)-2-pyridin-4-yl-thieno[3,2-d]pyrimidine-7-carboxylic acid methylamide], for which the concentration for half-maximal inhibition (IC50) was below 100 nM.

Take `CCNC(=O)c1csc2c(NC[C@@H](N)Cc3ccccc3)nc(-c3ccncc3)nc12` [compound 554, 4-((S)-2-Amino-3-phenyl-propylamino)-2-pyridin-4-yl-thieno[3,2-d]pyrimidine-7-carboxylic acid ethylamide]: the IC50 lay in the range of 100 to 1000 nM.

Consider `CC(C)NC(=O)c1csc2c(NC[C@@H](N)Cc3ccccc3)nc(-c3ccncc3)nc12` [compound 555, 4-((S)-2-Amino-3-phenyl-propylamino)-2-pyridin-4-yl-thieno[3,2-d]pyrimidine-7-carboxylic acid isopropylamide], for which the IC50 fell in the range of 1000 to 10000 nM.

Consider `N[C@H](CNc1nc(-c2ccncc2)nc2c(C(=O)NC3CC3)csc12)Cc1ccccc1` [compound 556, 4-((S)-2-Amino-3-phenyl-propylamino)-2-pyridin-4-yl-thieno[3,2-d]pyrimidine-7-carboxylic acid cyclopropylamide], for which the concentration for half-maximal inhibition (IC50) was in the range of 100 to 1000 nM.

With `CC(C)(C)NC(=O)c1csc2c(NC[C@@H](N)Cc3ccccc3)nc(-c3ccncc3)nc12` [compound 557, 4-((S)-2-Amino-3-phenyl-propylamino)-2-pyridin-4-yl-thieno[3,2-d]pyrimidine-7-carboxylic acid tert-butylamide], the IC50 was 1000 to 10000 nM.

Regarding `C#Cc1csc2c(N[C@@H]3CCNC3)nc(-c3ccncc3)nc12` [compound 559, (7-Ethynyl-2-pyridin-4-yl-thieno[3,2-d]pyrimidin-4-yl)-(R)-pyrrolidin-3-yl-amine], the 50% inhibitory concentration (IC50) lay within 100 to 1000 nM.

As for `N#Cc1csc2c(NC[C@@H](N)Cc3ccccc3)nc(-c3ccncc3)nc12` [compound 560, 4-((S)-2-Amino-3-phenyl-propylamino)-2-pyridin-4-yl-thieno[3,2-d]pyrimidine-7-carbonitrile], the IC50 is below 100 nM.

For `N[C@H](CNc1nc(-c2ccncc2)nc2c(-n3cccn3)csc12)Cc1ccccc1` [compound 561, (S)-3-Phenyl-N*1*-(7-pyrazol-1-yl-2-pyridin-4-yl-thieno [3,2-d]pyrimidin-4-yl)-propane-1,2-diamine], the IC50 is 100 to 1000 nM.

Take `N[C@H](CNc1nc(-c2ccncc2)nc2c(-n3ccnn3)csc12)Cc1ccccc1` [compound 562, (S)-3-Phenyl-N*1*-(2-pyridin-4-yl-7-[1,2,3]triazol-1-yl-thieno[3,2-d]pyrimidin-4-yl)-propane-1,2-diamine]: the IC50 was 100 to 1000 nM.

Turning to `N[C@H](CNc1nc(-c2ccncc2)nc2c(CCC3CC3)csc12)Cc1ccccc1` [compound 563, (S)—N*1*-[7-(2-Cyclopropyl-ethyl)-2-pyridin-4-yl-thieno[3,2-d]pyrimidin-4-yl]-3-phenyl-propane-1,2-diamine], the half-maximal inhibitory concentration (IC50) fell in the range of 1000 to 10000 nM.

For `N[C@H](CNc1nc(-c2cc[n+]([O-])cc2)nc2c(Br)csc12)Cc1ccccc1` [compound 564, (S)—N*1*-[7-Bromo-2-(1-oxy-pyridin-4-yl)-thieno[3,2-d]pyrimidin-4-yl]-3-phenyl-propane-1,2-diamine], the IC50 was in the range of 1000 to 10000 nM.

Consider `N[C@H](CNc1nc(-c2cc[n+]([O-])cc2)nc2c(-c3ccn[nH]3)csc12)Cc1ccccc1` [compound 565, (S)—N*1*-[2-(1-Oxy-pyridin-4-yl)-7-(2H-pyrazol-3-yl)-thieno[3,2-d]pyrimidin-4-yl]-3-phenyl-propane-1,2-diamine], for which the 50% inhibitory concentration (IC50) lay within 1000 to 10000 nM.

Consider `Nc1csc2c(NC[C@@H](N)Cc3ccccc3)nc(-c3ccncc3)nc12` [compound 566, N*4*-((S)-2-Amino-3-phenyl-propyl)-2-pyridin-4-yl-thieno[3,2-d]pyrimidine-4,7-diamine], for which the IC50 lay within 100 to 1000 nM.

In the case of `Nc1csc2c(N[C@@H]3CCNC3)nc(-c3ccncc3)nc12` [compound 567, 2-Pyridin-4-yl-N*4*-(R)-pyrrolidin-3-yl-thieno[3,2-d]pyrimidine-4,7-diamine], the IC50 was in the range of 1000 to 10000 nM.

On to `Cc1cc(-c2csc3c(NC[C@@H](N)Cc4ccccc4)nc(-c4ccncc4)nc23)no1` [compound 568, (S)-N*1*-[7-(5-Methyl-isoxazol-3-yl)-2-pyridin-4-yl-thieno[3,2-d]pyrimidin-4-yl]-3-phenyl-propane-1,2-diamine], for which the IC50 was in the range of 100 to 1000 nM.

As for `Cc1cc(-c2csc3c(NC[C@@H](N)Cc4ccccc4)nc(-c4ccncc4)nc23)n[nH]1` [compound 569, (S)-N*1*-[7-(5-Methyl-1H-pyrazol-3-yl)-2-pyridin-4-yl-thieno[3,2-d]pyrimidin-4-yl]-3-phenyl-propane-1,2-diamine], the concentration for half-maximal inhibition (IC50) was below 100 nM.

For the compound `CCc1cc(-c2csc3c(NC[C@@H](N)Cc4ccccc4)nc(-c4ccncc4)nc23)no1` [compound 570, (S)-N*1*-[7-(5-Ethyl-isoxazol-3-yl)-2-pyridin-4-yl-thieno[3,2-d]pyrimidin-4-yl]-3-phenyl-propane-1,2-diamine], the IC50 was 1000 to 10000 nM.
